Results taken from paper PMC3618599 (Clinical cancer research : an official journal of the …, 2013).

Assays:
[1] = tested on: patients with relapsed, refractory, or poor prognosis acute leukemia, or RAEB-2; assay: Phase I 3+3 dose escalation: DLT and MTD of alvocidib combined with vorinostat; format: in vivo, human
[2] = Vorinostat, VG and VA serum pharmacokinetics; format: in vivo, human; settings: for Change in Tmax, Cmax, and AUC0-8h: DSI schedule, day 1 or day 4, alvocidib escalated over 10–40 mg/m^2
solid tumor patients = settings: cited from earlier work
[3] = Alvocidib plasma pharmacokinetics; format: in vivo, human; settings: for Overall mean CL of alvocidib: initial dose, geometric mean ± SD
[4] = cited from earlier work
[5] = vorinostat 200 mg orally with alvocidib
[6] = days 2 and 16, 28-day cycles, with vorinostat 800 mg

## O=C(CCCCCCC(=O)Nc1ccccc1)NO [vorinostat, Vorinostat]
[1]; TID, with alvocidib WLMI 20/20 mg/m^2
  MTD for this regimen, vorinostat: 200 mg
[2]
  Change in Tmax, Cmax, and AUC0-8h: no change
[2]; [5]
  Vorinostat AUC higher, WLMI compared to DSI schedule: 25–50%
  Vorinostat Cmax higher, WLMI compared to DSI schedule: 25–50%
Solid tumor patients; days 1–3 and 15–17, 28-day cycles, with alvocidib WLMI
  MTD, vorinostat: 800 mg

## O=C(O)CCC(=O)Nc1ccccc1 [VA, 4-anilino-4-oxobutanoic acid]
[2]
  Change in Tmax, Cmax, and AUC0-8h: no change

## CN1CC[C@H](c2c(O)cc(O)c3c(=O)cc(-c4ccccc4Cl)oc23)[C@H](O)C1 [alvocidib, flavopiridol]
[1]; 4-h maintenance infusion, days 1 and 8 of 21-day cycle (WLMI), with vorinostat 200 mg orally TID days 1–14
  MTD, alvocidib maintenance infusion: 20 mg/m^2
[1]; 30-min loading infusion, days 1 and 8 of 21-day cycle (WLMI), with vorinostat 200 mg orally TID days 1–14
  MTD, alvocidib loading infusion: 20 mg/m^2
[3]; daily and weekly infusion schedules, on average
  Plasma concentration immediately before dosing on days 4 or 8 (accumulation): < 1 % of the subsequent Cmax
[3]; day 4 dose, DSI schedule, after vorinostat 200 mg TID for 3 days
  Mean CL of alvocidib: 9.9 ± 5.4 L/h/m^2
[3]; day 8 dose, WLMI schedule, after vorinostat 200 mg TID for 7 days
  Mean CL of alvocidib: 11.0 ± 3.9 L/h/m^2
[3]; DSI schedule
  Overall mean CL of alvocidib: 13.0 ± 4.8 L/h/m^2
[3]; WLMI schedule
  Overall mean CL of alvocidib: 12.2 ± 5.3 L/h/m^2
[4]
  Binding to plasma proteins: highly bound
Solid tumor patients; [6]
  MTD, alvocidib given over 4 h: 30 mg/m^2
  MTD, alvocidib initial 30 min infusion: 30 mg/m^2

## O=C(CCCCCCC(=O)Nc1ccccc1)NO[C@@H]1O[C@H](C(=O)O)[C@@H](O)[C@H](O)[C@H]1O [VG, vorinostat glucuronide]
[2]
  Change in Tmax, Cmax, and AUC0-8h: no change
[2]; WLMI schedule
  AUC lower with 60 mg/m^2 compared to 40 mg/m^2 alvocidib dose: 50%
  Cmax lower with 60 mg/m^2 compared to 40 mg/m^2 alvocidib dose: 50%
